Measurements taken from PubChem BioAssay AID248 (DTP/NCI, 2004).
“And” between values parts separate entries of the source, which are not always exact repeats. Equal values may be shown once. Inconclusive results and toxic doses are left out. Rule as the data show it: active = T/C of 150% or more; inactive = T/C below 125%. Square brackets hold non-standard residues; d marks the D form. Peptide text beside a SMILES is read from it. * marks the point of attachment. ξ: configuration not given here. Cbz = O=C(OCc1ccccc1)*; ξT = CC(O)C(N)C(=O)O

Tested on: L1210 leukemia ip in BDF1 mice, survival T/C
Assay: NCI In Vivo Anticancer Drug Screen. Data for tumor model L1210 Leukemia (intraperitoneal) in B6D2F1 (BDF1) mice
Conditions: endpoint: mean survival time, higher = longer survival
How it was run: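 In this screen, tumor-bearing mice given compound are compared to those given vehicle, and their survival values are reported as a treated-to-control quotient.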

[1] = dose: 50.0 mg/kg/injection, schedule: Q01DX009 (ip), vehicle: water
[2] = dose: 100.0 mg/kg/injection, schedule: Q01DX009 (ip), vehicle: water
[3] = dose: 100.0 mg/kg/injection, schedule: Q04DX003 (ip), vehicle: saline with Tween-80
[4] = dose: 200.0 mg/kg/injection, schedule: Q04DX003 (ip), vehicle: saline with Tween-80
[5] = dose: 400.0 mg/kg/injection, schedule: Q04DX003 (ip), vehicle: saline with Tween-80
[6] = dose: 100.0 mg/kg/injection, schedule: Q04DX002 (ip), vehicle: Klucel (hydroxypropylcellulose) (HPC)
[7] = dose: 200.0 mg/kg/injection, schedule: Q04DX002 (ip), vehicle: Klucel (hydroxypropylcellulose) (HPC)
[8] = dose: 400.0 mg/kg/injection, schedule: Q04DX002 (ip), vehicle: Klucel (hydroxypropylcellulose) (HPC)
[9] = dose: 100.0 mg/kg/injection, schedule: Q04DX003 (ip), vehicle: saline
[10] = dose: 200.0 mg/kg/injection, schedule: Q04DX003 (ip), vehicle: saline
[11] = dose: 400.0 mg/kg/injection, schedule: Q04DX003 (ip), vehicle: saline

Measured: T/C

Nc1cc(/C=C/c2ccc(/C=C/c3ccc(S(=O)(=O)F)cc3)cc2)nc(N)n1
inactive: dose: 50.0 mg/kg/injection, schedule: Q01DX001 (ip), vehicle: saline with Tween-80 87 % of control | dose: 100.0 mg/kg/injection, schedule: Q01DX001 (ip), vehicle: saline with Tween-80 92 % of control

NOCc1csc(NC(=O)Nc2ccccc2)n1
inactive: dose: 18.8 mg/kg/injection, schedule: Q01DX009 (ip), vehicle: saline with Tween-80 95 % of control | dose: 37.5 mg/kg/injection, schedule: Q01DX009 (ip), vehicle: saline with Tween-80 103 % of control | dose: 75.0 mg/kg/injection, schedule: Q01DX009 (ip), vehicle: saline with Tween-80 105 % of control

CCCCCCCCCC(=O)Nc1ccccc1CC
inactive: dose: 100.0 mg/kg/injection, schedule: Q04DX002 (ip), vehicle: other 116 % of control | dose: 200.0 mg/kg/injection, schedule: Q04DX002 (ip), vehicle: other 105 % of control | dose: 400.0 mg/kg/injection, schedule: Q04DX002 (ip), vehicle: other 101 % of control

CC(C)N(C(=O)Nc1cc([N+](=O)[O-])ccc1Cl)c1ccccc1
inactive: dose: 12.5 mg/kg/injection, schedule: Q01DX009 (ip), vehicle: Klucel (hydroxypropylcellulose) (HPC) 89 % of control | dose: 25.0 mg/kg/injection, schedule: Q01DX009 (ip), vehicle: Klucel (hydroxypropylcellulose) (HPC) 96 % of control | dose: 50.0 mg/kg/injection, schedule: Q01DX009 (ip), vehicle: Klucel (hydroxypropylcellulose) (HPC) 98 % of control

CC(C)N(C(=S)S)C(C)C
inactive: dose: 100.0 mg/kg/injection, schedule: Q01DX009 (ip), vehicle: saline 105 % of control | dose: 200.0 mg/kg/injection, schedule: Q01DX009 (ip), vehicle: saline 102 % of control | dose: 400.0 mg/kg/injection, schedule: Q01DX009 (ip), vehicle: saline 103 % of control

CC1=C(C)CC2C(=O)C=CC(=O)C2C1 (stereo unspecified)
inactive: [1] 97 % of control | [2] 97 % of control and 101 % of control | dose: 100.0 mg/kg/injection, schedule: Q04DX003 (ip), vehicle: water 89 % of control | dose: 200.0 mg/kg/injection, schedule: Q01DX009 (ip), vehicle: water 95 % of control | dose: 200.0 mg/kg/injection, schedule: Q04DX003 (ip), vehicle: water 101 % of control

CCN(CC)CCCC(C)Nc1cc(OC)cc2cccnc12 (stereo unspecified)
inactive: dose: 10.0 mg/kg/injection, schedule: Q01DX009 (ip), vehicle: Klucel (hydroxypropylcellulose) (HPC) 93 % of control | dose: 20.0 mg/kg/injection, schedule: Q01DX001 (ip), vehicle: Klucel (hydroxypropylcellulose) (HPC) 100 % of control | dose: 20.0 mg/kg/injection, schedule: Q01DX009 (ip), vehicle: Klucel (hydroxypropylcellulose) (HPC) 96 % of control | dose: 40.0 mg/kg/injection, schedule: Q01DX001 (ip), vehicle: Klucel (hydroxypropylcellulose) (HPC) 100 % of control | dose: 40.0 mg/kg/injection, schedule: Q01DX009 (ip), vehicle: Klucel (hydroxypropylcellulose) (HPC) 96 % of control

CC1(C)OC2(C)OC1(C)OC2(C)C
inactive: dose: 75.0 mg/kg/injection, schedule: Q01DX009 (ip), vehicle: carboxymethylcellulose (CMC) 100 % of control | dose: 150.0 mg/kg/injection, schedule: Q01DX009 (ip), vehicle: carboxymethylcellulose (CMC) 103 % of control | dose: 300.0 mg/kg/injection, schedule: Q01DX009 (ip), vehicle: carboxymethylcellulose (CMC) 105 % of control

O=C1C(=O)N2CCCCc3cccc1c32
inactive: dose: 50.0 mg/kg/injection, schedule: Q01DX001 (ip), vehicle: carboxymethylcellulose (CMC) 96 % of control | dose: 100.0 mg/kg/injection, schedule: Q01DX001 (ip), vehicle: carboxymethylcellulose (CMC) 108 % of control | dose: 200.0 mg/kg/injection, schedule: Q01DX001 (ip), vehicle: carboxymethylcellulose (CMC) 100 % of control | dose: 400.0 mg/kg/injection, schedule: Q01DX001 (ip), vehicle: carboxymethylcellulose (CMC) 101 % of control

COc1ccc(OC(=O)Nc2c(C)cccc2C)cc1
inactive: dose: 100.0 mg/kg/injection, schedule: Q01DX009 (ip), vehicle: saline with Tween-80 95 % of control | [3] 98 % of control | dose: 200.0 mg/kg/injection, schedule: Q01DX009 (ip), vehicle: saline with Tween-80 91 % of control | [4] 105 % of control | dose: 400.0 mg/kg/injection, schedule: Q01DX009 (ip), vehicle: saline with Tween-80 94 % of control | [5] 100 % of control

c1ccc(C2=NN(c3ccccc3)CC2)cc1
inactive: [6] 106 % of control | [7] 98 % of control | [8] 106 % of control

Cc1ccc(NC(=O)Nc2ccc(Cl)c(Cl)c2)cc1Cl
inactive: dose: 100.0 mg/kg/injection, schedule: Q01DX009 (ip), vehicle: Klucel (hydroxypropylcellulose) (HPC) 97 % of control | dose: 100.0 mg/kg/injection, schedule: Q04DX003 (ip), vehicle: Klucel (hydroxypropylcellulose) (HPC) 93 % of control | dose: 200.0 mg/kg/injection, schedule: Q01DX009 (ip), vehicle: Klucel (hydroxypropylcellulose) (HPC) 87 % of control | dose: 200.0 mg/kg/injection, schedule: Q04DX003 (ip), vehicle: Klucel (hydroxypropylcellulose) (HPC) 96 % of control | dose: 400.0 mg/kg/injection, schedule: Q01DX009 (ip), vehicle: Klucel (hydroxypropylcellulose) (HPC) 92 % of control | dose: 400.0 mg/kg/injection, schedule: Q04DX003 (ip), vehicle: Klucel (hydroxypropylcellulose) (HPC) 91 % of control

O=C1OCC/C1=C/OS(=O)(=O)C(F)(F)F
inactive: dose: 12.5 mg/kg/injection, schedule: Q01DX009 (ip), vehicle: water 105 % of control | dose: 25.0 mg/kg/injection, schedule: Q01DX009 (ip), vehicle: water 106 % of control | [1] 105 % of control | [2] 104 % of control

COC(=O)C(NC(=O)CNC(=O)OCc1ccccc1)C(C)O (stereo not drawn) (Cbz-Gly-[ξT]-OMe)
inactive: [3] 98 % of control | [4] 96 % of control | [5] 93 % of control

CC(=O)Nc1ccc(C=O)cc1
inactive: dose: 100.0 mg/kg/injection, schedule: Q01DX001 (ip), vehicle: saline 100 % of control | dose: 200.0 mg/kg/injection, schedule: Q01DX001 (ip), vehicle: saline 97 % of control | dose: 400.0 mg/kg/injection, schedule: Q01DX001 (ip), vehicle: saline 116 % of control

CCCCCCNC(C)(C)[P+](=O)O
inactive: [9] 105 % of control | [10] 108 % of control | [11] 102 % of control

BrCC(Br)=C(Br)Br
inactive: dose: 6.0 mg/kg/injection, schedule: Q04DX003 (ip), vehicle: Klucel (hydroxypropylcellulose) (HPC) 105 % of control | dose: 12.0 mg/kg/injection, schedule: Q01DX001 (ip), vehicle: Klucel (hydroxypropylcellulose) (HPC) 88 % of control | dose: 12.0 mg/kg/injection, schedule: Q04DX003 (ip), vehicle: Klucel (hydroxypropylcellulose) (HPC) 91 % of control | dose: 25.0 mg/kg/injection, schedule: Q01DX001 (ip), vehicle: Klucel (hydroxypropylcellulose) (HPC) 97 % of control and 101 % of control | dose: 25.0 mg/kg/injection, schedule: Q04DX003 (ip), vehicle: Klucel (hydroxypropylcellulose) (HPC) 91 % of control | dose: 50.0 mg/kg/injection, schedule: Q01DX001 (ip), vehicle: Klucel (hydroxypropylcellulose) (HPC) 93 % of control and 90 % of control | dose: 100.0 mg/kg/injection, schedule: Q01DX001 (ip), vehicle: Klucel (hydroxypropylcellulose) (HPC) 97 % of control

CCCCCCCCCCCCC(=O)N(CCCC)CCCC
inactive: [6] 92 % of control | [7] 96 % of control | [8] 103 % of control

COc1cccc(OC)c1-c1oc2ccccc2c(=O)c1O
inactive: dose: 100.0 mg/kg/injection, schedule: Q01DX009 (ip), vehicle: acetone 94 % of control | [9] 95 % of control | dose: 200.0 mg/kg/injection, schedule: Q01DX009 (ip), vehicle: acetone 95 % of control | [10] 94 % of control | dose: 400.0 mg/kg/injection, schedule: Q01DX009 (ip), vehicle: acetone 95 % of control | [11] 94 % of control

S=C1NC(c2ccccc2)NC(c2ccccc2)S1 (stereo unspecified)
inactive: dose: 12.0 mg/kg/injection, schedule: Q01DX009 (ip), vehicle: saline 93 % of control | dose: 25.0 mg/kg/injection, schedule: Q01DX009 (ip), vehicle: saline 90 % of control | dose: 50.0 mg/kg/injection, schedule: Q01DX009 (ip), vehicle: saline 90 % of control

Nc1ccc(Cc2ccc(N)cc2)cc1
inactive: dose: 25.0 mg/kg/injection, schedule: Q01DX009 (ip), vehicle: gum acacia 95 % of control | dose: 50.0 mg/kg/injection, schedule: Q01DX009 (ip), vehicle: gum acacia 105 % of control | dose: 100.0 mg/kg/injection, schedule: Q01DX009 (ip), vehicle: gum acacia 105 % of control and 112 % of control
